# Results taken from ChEMBL document CHEMBL5214886, “An appraisal of anti-mycobacterial activity with structure-activity relationship of piperazine and its analogues: A review” (Eur J Med Chem, 2021).
# Where “and” joins values, the source holds several entries; their conditions need not be identical. Equal entries are not always repeated.
# Columns and labels:
# [1] = tested on: Mycobacterium tuberculosis; assay: Antimycobacterial activity against Mycobacterium tuberculosis H37Rv assessed as reduction in bacterial growth incubated for 6 days by resazurin reduction microplate assay; type: functional; details: 144 h, time 6 day
# [2] = Aqueous solubility of the compound incubated for 3 days by shake flask method; type: physicochemical; details: water; time 3 day
# [3] = tested on: Mycobacterium tuberculosis; assay: Antimycobacterial activity against Mycobacterium tuberculosis H37Rv assessed as reduction in bacterial growth by MABA analysis; type: functional
# [4] = tested on: Mycobacterium tuberculosis; assay: Antimycobacterial activity against Mycobacterium tuberculosis H37Rv assessed as reduction in bacterial growth incubated for 21 days by broth dilution assay; type: functional; details: 504 h, time 21 day
# [5] = tested on: Mycobacterium tuberculosis; assay: Antimycobacterial activity against Mycobacterium tuberculosis My 331/88 (H37Rv) assessed as reduction in bacterial growth incubated for 14 days by microdilution method; type: functional; details: 336 h, time 14 day
# [6] = tested on: Mycobacterium tuberculosis; assay: Antimycobacterial activity against Mycobacterium tuberculosis H37Rv assessed as reduction in bacterial growth by MABA assay; type: functional
# [7] = tested on: Mycobacterium tuberculosis; assay: Antimycobacterial activity against Mycobacterium tuberculosis H37Rv ATCC 27294 assessed as reduction in bacterial growth by MABA analysis; type: functional
# [8] = tested on: Mycobacterium tuberculosis; assay: Antimycobacterial activity against Mycobacterium tuberculosis H37Rv ATCC 27294 assessed as reduction in bacterial growth incubated for 7 days by MABA analysis; type: functional; details: H37Rv ATCC 27294, 168 h, time 7 day
# [9] = tested on: Mycobacterium tuberculosis; assay: Antimycobacterial activity against Mycobacterium tuberculosis H37Ra assessed as reduction in bacterial growth; type: functional
# [10] = tested on: Mycobacterium tuberculosis; assay: Antimycobacterial activity against Mycobacterium tuberculosis H37Rv assessed as reduction in bacterial growth; type: functional
# [11] = tested on: Mycobacterium tuberculosis; assay: Antimycobacterial activity against Mycobacterium tuberculosis H37Rv ATCC 27294 assessed as reduction in bacterial growth and measured after 21 days by radiometric BACTEC method; type: functional; details: H37Rv ATCC 27294, 504 h, time 21 day
# [12] = tested on: Mycobacterium tuberculosis; assay: Antimycobacterial activity against Mycobacterium tuberculosis H37Rv ATCC 27294 assessed as reduction in bacterial growth incubated for 72 hrs by two-fold dilution method; type: functional
# [13] = tested on: Mycobacterium tuberculosis; assay: Antimycobacterial activity against Mycobacterium tuberculosis H37Rv assessed as reduction in bacterial colonies by colony counting method; type: functional
# [14] = tested on: Mycobacterium tuberculosis; assay: Antimycobacterial activity against Mycobacterium tuberculosis H37Rv assessed as reduction in bacterial growth by REMA analysis; type: functional
# [15] = tested on: Mycobacterium tuberculosis; assay: Antimycobacterial activity against Mycobacterium tuberculosis kurono assessed as reduction in bacterial colonies incubated for 14 days by colony counting method; type: functional; details: 336 h, time 14 day
# [16] = tested on: Mycobacterium tuberculosis; assay: Antimycobacterial activity against Mycobacterium tuberculosis H37Rv ATCC 27294 assessed as reduction in bacterial growth; type: functional
# [17] = tested on: Mycobacterium tuberculosis; assay: Antimycobacterial activity against Mycobacterium tuberculosis H37Rv assessed as reduction in bacterial growth by BACTEC MGIT method; type: functional
# [18] = tested on: Mycobacterium tuberculosis; assay: Antimycobacterial activity against Mycobacterium tuberculosis H37Rv assessed as reduction in bacterial growth by agar dilution method; type: functional
# [19] = tested on: Mycobacterium tuberculosis; assay: Antimycobacterial activity against Mycobacterium tuberculosis H37Rv assessed as reduction in bacterial growth and measured after 7 days by resazurin assay; type: functional, organism-based; details: 168 h
# [20] = target: T1, Enoyl-[acyl-carrier-protein] reductase [NADH] (Mycobacterium tuberculosis, UniProt P9WGR1); assay: Inhibition of Mycobacterium tuberculosis InhA using octenoyl-CoA as substrate in presence of NADH and measured for 10 mins by colorimetric assay
# T1 sequence (P9WGR1 whole entry): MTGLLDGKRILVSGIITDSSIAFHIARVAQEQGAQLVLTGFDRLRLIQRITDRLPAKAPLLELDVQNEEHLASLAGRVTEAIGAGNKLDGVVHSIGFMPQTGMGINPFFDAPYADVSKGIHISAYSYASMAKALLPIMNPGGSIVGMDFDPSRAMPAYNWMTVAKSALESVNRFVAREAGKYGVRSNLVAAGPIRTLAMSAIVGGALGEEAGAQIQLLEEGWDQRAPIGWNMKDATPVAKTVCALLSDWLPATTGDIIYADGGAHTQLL
# [21] = tested on: Mycobacterium tuberculosis; assay: Antimycobacterial activity against Mycobacterium tuberculosis H37Rv assessed as reduction in bacterial growth incubated for 15 days by turbidometric method; type: functional; details: 360 h, time 15 day
# [22] = tested on: Mycobacterium tuberculosis; assay: Antimycobacterial activity against Mycobacterium tuberculosis H37Rv ATCC 27294 assessed as reduction in bacterial growth by fluorescence based MABA method; type: functional
compound,measurement,setting,value
O=c1nc(N2CCN(S(=O)(=O)C3CC3)CC2)sc2c([N+](=O)[O-])cc(C(F)(F)F)cc12,MIC,[1],0.0064 µM
same,solubility thermodynamic at 72 h,[2],15.9 µM
NNC(=O)c1ccncc1 [ISONIAZID],MIC,[3],0.06 µM
same,MIC,[4],10.9 µM
COc1ccc(N2CCN(c3ccc(CNC(=O)c4ccc([N+](=O)[O-])o4)cc3)CC2)cc1,MIC,[3],< 0.04 µM
CC1COc2c(N3CCN(C)CC3)c(F)cc3c(=O)c(C(=O)O)cn1c23 (stereo not drawn) [OFLOXACIN],MIC,[5],1 µM
CCON=C1CCC(CN2CCN(c3nc(=O)c4cc(C(F)(F)F)cc([N+](=O)[O-])c4s3)CC2)CC1 (stereo not drawn),MIC,[3],< 0.03 µM
CCn1cc(C(=O)O)c(=O)c2cc(F)c(N3CCN(CN4C(=O)/C(=N\c5ncc(Cc6cc(OC)c(OC)c(OC)c6)c(N)n5)c5cc(Cl)ccc54)C(C)C3)c(F)c21 (stereo not drawn),MIC,[6],1.91 µM
same,MIC,[7],1.91 µM
O=C(CCCc1cc2ccccc2[nH]1)N1CCN(c2nc3ccccc3c3ccccc23)CC1,MIC,[8],3.48 µM
O=C(NCc1ccc(N2CCN(Cc3ccccc3)CC2)cc1)c1ccc([N+](=O)[O-])o1,MIC,[9],0.014 µM
same,MIC,[10],0.014 µM
CCOC(=O)N1CCN(CC(=O)C2C(c3ccccc3)CC(=O)C(CC)C2c2ccccc2)CC1 (stereo not drawn),MIC,[11],33.6 µM
O=C(CSc1nnc(N2CCN(c3cc4c(cc3F)c(=O)c(C(=O)O)cn4C3CC3)CC2)s1)c1ccc(Cl)cc1,MIC,[4],1.67 µM
COc1c(N2CCNC(C)C2)c(F)cc2c(=O)c(C(=O)O)cn(C3CC3)c12 (stereo not drawn) [GATIFLOXACIN],MIC,[12],0.66 µM
CCOC(=O)N1CCN(CC(=O)C2C(c3ccccc3)C(C)C(=O)C(C)C2c2ccccc2)CC1 (stereo not drawn),MIC,[11],33.6 µM
CCCCCCCCCN1CCN(c2c(F)cc3c(c2OC)C(C2CC2)=CC(C(=O)O)C3=O)CC1 (stereo not drawn),MIC,[13],0.25 µM
O=c1nc(N2CCN(CC3CCCCC3)CC2)sc2c([N+](=O)[O-])cc(C(F)(F)F)cc12 [MACOZINONE],MIC,[14],< 0.42 µM
same,MIC,[1],0.0004 µM
Cc1cn2c(C(=O)NCc3ccc(N4CCN(c5ccc(C(F)(F)F)cn5)CC4)c(F)c3)cnc2s1,MIC,[8],0.004 µM
CCOC(=O)C1=NOC(c2ccc(N3CCN(Cc4ccccc4)CC3)cc2)C1 (stereo not drawn),MIC90,[4],3.96 µM
CC[C@@H](CO)NCCN[C@@H](CC)CO [ETHAMBUTOL],MIC,[5],1.1 µM
O=C(NCc1ccc(N2CCN(c3ccc(F)cc3F)CC2)cc1)c1ccc([N+](=O)[O-])o1,MIC,[3],< 0.04 µM
CC(C)(c1ccc(OCc2ccc(C(F)(F)F)cc2)cc1)N1CCN(c2ccc(OC[C@H]3CCn4cc([N+](=O)[O-])nc4O3)cc2)CC1,MIC,[15],0.001 µM
CCOC(=O)N1CCN(CC(=O)C2C(c3ccc(Cl)cc3)C(C)C(=O)C(C)C2c2ccc(Cl)cc2)CC1 (stereo not drawn),MIC,[11],29.3 µM
CCOC(=O)c1ccc(N2CCN(c3nccc(N4CCOc5nc([N+](=O)[O-])cn5C4)n3)CC2)cc1,MIC,[6],> 100 µM
CCOC(=O)N1CCN(CC(=O)C2C(c3ccc(OC)cc3)C(C)C(=O)C(C)C2c2ccc(OC)cc2)CC1 (stereo not drawn),MIC,[11],29.8 µM
CC(=O)NC[C@H]1CN(c2ccc(N3CCN(c4ccc5nccn5n4)CC3)c(F)c2)C(=O)O1,MIC,[16],1.1 µM
NC(=O)c1cnccn1 [PYRAZINAMIDE],MIC,[17],50.8 µM
same,MIC,[18],50.8 µM
CCOC(=O)N1CCN(CC(=O)C2C(c3cccc(F)c3)C(C)C(=O)C(C)C2c2cccc(F)c2)CC1 (stereo not drawn),MIC,[11],31.2 µM
CON=C1CCC(CN2CCN(c3nc(=O)c4cc(C(F)(F)F)cc([N+](=O)[O-])c4s3)CC2)CC1 (stereo not drawn),MIC,[3],< 0.03 µM
COC(=O)COc1ccc2ccccc2c1CN1CCN(C/C=C/c2ccccc2)CC1,MIC,[10],9.3 µM
CCCCOC(=O)Nc1ccc(C(O)CN2CCN(c3ccccc3F)CC2)cc1 (stereo not drawn),MIC,[5],8 µM
CO[C@H]1/C=C/O[C@@]2(C)Oc3c(C)c(O)c4c(O)c(c(/C=N/N5CCN(C)CC5)c(O)c4c3C2=O)NC(=O)/C(C)=C\C=C\[C@H](C)[C@H](O)[C@@H](C)[C@@H](O)[C@@H](C)[C@H](OC(C)=O)[C@@H]1C [RIFAMPIN],MIC,[3],> 48.6 µM
O=C(c1ccncc1)N1CCN(c2nc3ccccc3c3ccccc23)CC1,MIC,[8],4.23 µM
COc1cc(N2CCN(c3ccc(N4C[C@H](CNC(C)=O)OC4=O)cc3F)CC2)nc2nccn12,MIC,[16],1.03 µM
Cc1ccc2nc(-c3ccccc3)c(C(c3ccccc3)N(CC(=O)N3CCN(c4ccccn4)CC3)Cc3ccccc3)cc2c1 (stereo not drawn),IC50,[19],3980 nM
O=C(CSc1nnc(N2CCN(c3cc4c(cc3F)c(=O)c(C(=O)O)cn4C3CC3)CC2)s1)c1ccc([N+](=O)[O-])cc1,MIC,[4],0.82 µM
O=C(c1ccc2[nH]ccc2c1)N1CCN(C2c3ccccc3-c3ccc([N+](=O)[O-])cc32)CC1 (stereo not drawn),IC50,[20],270 nM
COc1ccc2cc(C(=O)CN3CCN(c4c(F)cc5c(=O)c(C(=O)O)cn(C6CC6)c5c4OC)CC3)c(=O)oc2c1,MIC,[12],0.43 µM
O=C(NCc1ccc(N2CCN(c3ccc(F)cc3)CC2)cc1)c1ccc([N+](=O)[O-])o1,MIC,[3],< 0.04 µM
CCn1cc(C(=O)O)c(=O)c2cc(F)c(N3CCN(c4nnc(SCC(=O)c5ccc([N+](=O)[O-])cc5)s4)CC3)cc21,MIC,[4],1.68 µM
Cc1cccc(-c2nc(CN3CCN(c4ccnc5cc(-c6cccnc6)ccc45)CC3)no2)c1C,MIC,[21],0.52 µM
CC1COc2c(N3CCNCC3)c(F)cc3c(=O)c(C(=O)O)cn1c23 (stereo not drawn) [DESMETHYL-OFLOXACIN],MIC,[22],11.7 µM and 4.55 µM
N#Cc1ccc(Nc2nc(Oc3ncnc4ccccc34)nc(N3CCN(c4cccc(Cl)c4Cl)CC3)n2)cc1C(F)(F)F,MIC,[17],> 9.79 µM
same,MIC,[18],9.79 µM
CC(C)(C)c1ccc(S(=O)(=O)N2CCN(c3nc4ccccc4c4ccccc34)CC2)cc1,MIC,[8],3.39 µM
